In US20240101957A1, “METHODS AND COMPOSITIONS FOR GENERATING EMBRYOS IN VITRO FROM PLURIPOTENT STEM CELLS” (California Institute of Technology, priority 2022, published 2024):
“Also recorded” adds a separate entry of the source.

How the values were obtained:
Assay type in all cases: cell-based
[1] = system: inducible human embryoids; test: Formation of organized inducible human embryoids with BMP inhibitor added between days 0-2; conditions: added between days 0-2 post-aggregation; vs untreated control
Method: (§1) To generate the three-dimensional stem cell-derived model of the post-implantation embryo, RSeT cells between 2 and 6 passages post-conversion to RSeT media were passaged as normal. The media for extraembryonic-like cells (induced GATA6, induced GATA6-SOX17 or induced GATA3-AP2γ) was changed to N2B27 with 5% Knockout Serum Replacement and 1 μg/mL DOX on the following day (Day −3). This media was refreshed every 24 hours for 3 days. On Day 0 (the day of aggregation), an Aggrewell dish (34415, STEMCELL Technologies) was prepared by pre-coating with anti-adherence solution (07010, STEMCELL Technologies) and centrifuging at 2000 g for 5 minutes. Wells were washed twice with PBS prior to the addition of experiment media. This media consisted of N2B27 with 5% knockout serum replacement, 1 μg/mL doxycycline, and 10 μM Y-27632. Induced cells and wildtype ESCs were enzymatically dissociated 1 hour after addition of 10 μM Y-27632 to wells containing cells for inducible human embryoid generation. Dissociated cells were pelleted and resuspended in experiment media and placed in gelatin-coated wells for MEF depletion. After 15-30 minutes, cells were counted, mixed, and plated into an Aggrewell dish with a final calculation of 8 wildtype-ESC, 8 hypoblast-like, and 16 trophoblast-like cells plated per microwell in the Aggrewell. […]

human embryo-like model [2] = test: Number of SOX17/NANOG/AP2γ triple-positive primordial germ cell-like cells in treated embryoids; conditions: Day 4 embryoids; vs control
Method: as §1, with “Aggrewell. At 8 d.p.f., in vitro cultured human embryos had 32:24:228 epiblast:hypoblast:trophoblast cells. Importantly, however, many of the trophoblast cells were not in contact with the inner cell mass-derived tissues or were terminally differentiated. Additionally, inducible GATA6-SOX17 cells in culture proliferated slower than the other two cell populations after doxycycline addition. Therefore, an initial seeding density with: (1) a total cell number similar to that used in mouse models that allowed for successful cell sorting; (2) a ratio of cells that reflected the peri-implantation embryo; and (3) a reduced number of inducible GATA3-AP2γ cells and an increased number of inducible GATA6-SOX17 cells was utilized.” for “Aggrewell.”

human embryo-like model [3] = test: Differentiation of the inner epiblast-like domain (SOX2, CDX2, AP2a immunofluorescence) in treated human embryo-like model; conditions: treated between 48- and 96-hours post-aggregation; Day 4 and Day 6; compared to untreated control or BMP4 treated structures
Method: as §1

c1ccc2c(-c3cnn4cc(-c5ccc(N6CCNCC6)cc5)cnc34)ccnc2c1 [LDN193189]
formation of organized structures (embryoid formation) [1]: blocked formation of organized structures; also recorded: failing to form | number of primordial germ cell-like cells (human embryo-like model [2]): decreased | CDX2 and AP2a upregulation in the inner domain (human embryo-like model [3]): lesser CDX2 and AP2a upregulation | SOX2 expression in the inner domain (human embryo-like model [3]): increased maintenance of SOX2 expression

B1: BMP4: bone morphogenic protein-4, TGFβ superfamily member (protein, UniProt P12644 293-408, looked up)
Bone morphogenetic protein 4: SPKHHSQRARKKNKNCRRHSLYVDFSDVGWNDWIVAPPGYQAFYCHGDCPFPLADHLNSTNHAIVQTLVNSVNSSIPKACCVPTELSAISMLYLDEYDKVVLKNYQEMVVEGCGCR
number of primordial germ cell-like cells (human embryo-like model [2]): minimal effect

B2: Activin-A: an agonist of SMAD2.3 signaling (protein, UniProt P08476 311-426, looked up)
Inhibin beta A chain: GLECDGKVNICCKKQFFVSFKDIGWNDWIIAPSGYHANYCEGECPSHIAGTSGSSLSFHSTVINHYRMRGHSPFANLKSCCVPTKLRPMSMLYYDDGQNIIKKDIQNMIVEECGCS
modifications: Inhibin beta A chain
notes: an agonist of SMAD2.3 signaling
number of primordial germ cell-like cells (human embryo-like model [2]): minimal effect
